Assay [1] concerns A/turkey/MN/833/80 (H4N2). Nature of the assay: microbe, parasite or virus in culture. As to conditions: Influenza A virus, H4N2, MDCK, read-out: IC50 (nM of Zanamivir). Format: cell-based.
In the next assay the test system is A/Wuhan/359/95 (H3N2). Nature of the assay: microbe, parasite or virus in culture. Format: cell-based. As to conditions: Influenza A virus, H3N2, MDCK, read-out: IC50 (nM of Zanamivir).

In publication PMC3058180 (Journal of pharmaceutical sciences, 2010) one finds IC50 data, which are given here for one compound.

`CC(=O)N[C@H]1[C@H]([C@H](O)[C@H](O)CO)OC(C(=O)O)=C[C@@H]1N=C(N)N` [compound 1, Zanamivir]: the values for the IC50 (in assay [1]; in the assay with A/Wuhan/359/95 (H3N2)) were 21000 nM and 23000 nM, respectively.
